From ChEMBL document CHEMBL4725419, “Complete Regression of Carcinoma via Combined C-RAF and EGFR Targeted Therapy” (2020) come the findings set out here.

Each structure is given as a SMILES string.

Assay [1] is described as follows: Antiproliferative activity against EGFR/C-RAF knockdown human Panc198 cells harboring K-RAS G12D/TP53 D208V mutant xenografted in mouse tumor model assessed as inhibition of cell proliferation by MTT assay in presence of erlotinib. In kind it is functional.
The nature of assay [2]: Antiproliferative activity against EGFR/C-RAF knockdown human PDAC003T cells harboring K-RAS G12D/TP53 Q136P mutant xenografted in mouse tumor model assessed as inhibition of cell proliferation by MTT assay in presence of erlotinib. In kind it is functional. A general note: A xenograft is tissue or cells of one species grown in another, often human tumour cells in immunodeficient mice.

Assay [3] in a line: Antiproliferative activity against EGFR/C-RAF knockdown human Panc4 cells harboring K-RAS G12D/TP53 P72R/R28W mutant xenografted in mouse tumor model assessed as inhibition of cell proliferation by MTT assay in presence of erlotinib. In kind it is functional, Panc-4.
Assay [4] is described as follows: Antiproliferative activity against EGFR/C-RAF knockdown human H-PDAC-M-X3 cells harboring K-RAS G12D/TP53 H179Y mutant xenografted in mouse tumor model assessed as inhibition of cell proliferation by MTT assay in presence of erlotinib. Type of assay: functional.
For a further assay, the system named is PANC-1. The assay is described as follows: Antiproliferative activity against EGFR/C-RAF knockdown human PANC-1 cells harboring K-RAS G12D/TP53 P72R/K129R mutant xenografted in mouse tumor model assessed as inhibition of cell proliferation by MTT assay in presence of erlotinib. In kind it is functional.
Assay [5] in a line: Antiproliferative activity against EGFR/C-RAF knockdown human PDAC013T cells harboring K-RAS G12D/TP53 I254T mutant xenografted in mouse tumor model assessed as inhibition of cell proliferation by MTT assay in presence of erlotinib. In kind it is functional.

For the compound `C#Cc1cccc(Nc2ncnc3cc(OCCOC)c(OCCOC)cc23)c1` [ERLOTINIB], the INH stood at 32.8 µM in assay [1]; 11.7 µM in assay [2]; 2.82 µM in assay [3]; 24.5 µM in assay [4]; 6.1 µM in the assay with PANC-1; 2.05 µM in assay [5].
